The values below come from publication PMC6934184, “Selective DNA-PKcs inhibition extends the therapeutic index of localized radiotherapy and chemotherapy” (The Journal of Clinical Investigation, 2019).

For the test, the target named is T1, AMPK (A1/B2/G1) (Homo sapiens, UniProt Q13131).
T1 construct: purchased Thermo Fisher Scientific (Life Technologies) SelectScreen
Briefly: SelectScreen LanthaScreen. The test is classed as binding. Particulars: read-out: % displacement. The procedure, abridged: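 NU5455 was profiled across the SelectScreen Broad panel of kinase activity and binding assays. Z'LYTE reactions such as CSF1R ran at apparent Km ATP, while the Adapta CAMK1 assay used ATP listed as 10. Values are given as percent.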
(In TR-FRET formats the signal depends on donor and acceptor labels being close together.)

T1 sequence (Q13131 whole entry): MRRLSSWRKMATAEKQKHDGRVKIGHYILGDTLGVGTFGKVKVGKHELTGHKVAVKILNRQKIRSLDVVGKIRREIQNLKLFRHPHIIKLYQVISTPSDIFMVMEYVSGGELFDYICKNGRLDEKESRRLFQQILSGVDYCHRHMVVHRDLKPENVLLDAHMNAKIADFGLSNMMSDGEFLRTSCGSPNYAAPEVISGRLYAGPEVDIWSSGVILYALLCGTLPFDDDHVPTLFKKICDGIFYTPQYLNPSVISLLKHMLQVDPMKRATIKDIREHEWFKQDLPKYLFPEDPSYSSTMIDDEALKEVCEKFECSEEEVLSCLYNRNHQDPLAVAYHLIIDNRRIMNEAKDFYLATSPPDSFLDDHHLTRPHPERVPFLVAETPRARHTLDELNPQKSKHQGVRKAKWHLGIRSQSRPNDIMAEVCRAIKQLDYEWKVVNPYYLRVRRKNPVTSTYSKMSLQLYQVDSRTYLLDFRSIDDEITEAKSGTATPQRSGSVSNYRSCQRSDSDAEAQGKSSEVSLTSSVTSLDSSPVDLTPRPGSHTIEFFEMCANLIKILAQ
T1 sequence (O43741 whole entry partner): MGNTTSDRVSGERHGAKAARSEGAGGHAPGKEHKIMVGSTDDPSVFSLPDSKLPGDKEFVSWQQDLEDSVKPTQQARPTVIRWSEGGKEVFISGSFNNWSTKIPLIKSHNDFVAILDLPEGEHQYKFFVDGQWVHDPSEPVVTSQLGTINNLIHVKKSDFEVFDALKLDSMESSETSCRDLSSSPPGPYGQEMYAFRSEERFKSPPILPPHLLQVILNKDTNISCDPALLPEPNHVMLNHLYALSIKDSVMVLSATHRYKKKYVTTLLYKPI
T1 sequence (P54619 whole entry partner): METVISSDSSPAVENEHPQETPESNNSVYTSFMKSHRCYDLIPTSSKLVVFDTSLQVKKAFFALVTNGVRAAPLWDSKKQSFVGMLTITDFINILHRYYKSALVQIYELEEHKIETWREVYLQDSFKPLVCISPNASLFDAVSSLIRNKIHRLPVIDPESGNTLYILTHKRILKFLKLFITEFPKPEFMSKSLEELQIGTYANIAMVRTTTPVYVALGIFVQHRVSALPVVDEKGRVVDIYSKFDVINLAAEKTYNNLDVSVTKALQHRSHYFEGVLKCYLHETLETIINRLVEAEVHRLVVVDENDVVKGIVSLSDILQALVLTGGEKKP

As to `CN(C(=O)CN1CCOCC1)c1ccc2sc3c(-c4cccc5c(=O)cc(N6CC7CCC(C6)O7)oc45)cccc3c2c1` [NU5455], the inhibition at 1 µM stood at 0.9%.
